Data: patent publication EP0358508A2, “Novel immunosuppressant compound” (MERCK & CO. INC., priority 1988, dated 1990)
“Also recorded” adds a separate entry of the source.

Key:
[1] = test system: mouse T lymphocytes stimulated with the combination of ionomycin plus PMA; assay: T-cell proliferation assay (ionomycin plus PMA induced T-cell stimulation, tritiated thymidine uptake); type: cell-based, C57B1/6 mice
Text: The principle of this assay is to measure the proliferation of mouse T lymphocytes stimulated with the combination of ionomycin plus PMA. A positive sample in this assay will inhibit T-cell proliferation, as indicated by reduced tritiated thymidine uptake.
Spleens from C57B1/6 mice were taken under sterile conditions and gently dissociated in ice-cold RPMI 1640 culture medium (GIBCO, Grand Island, N.Y.) supplemented with 10% heat-inactivated fetal calf serum (GIBCO). Cells were pelleted by centrifugation at 1500 rpm for 8 minutes. Contaminating red cells were removed by treating the pellet with ammonium chloride lysing buffer (GIBCO) for 2 minutes at 4°C. […]
Purified T lymphocytes were resuspended at 2.5 x 10⁵ cells/ml in complete culture medium composed of RPMI 1640 medium with 10% heat-inactivated fetal calf serum, […] glutamine, 1 mM sodium pyruvate, 2 x 10⁻⁵ M 2-mercaptoethanol and 50 µg/ml gentamycin. […] The proliferation of T lymphocytes was assessed by measurement of tritiated thymidine incorporation. […] Radioactivity of filter discs corresponding to individual wells was measured by standard liquid scintillation counting methods (Beta counter). Mean counts per minute of replicate wells were calculated and the results expressed as percent inhibition of tritiated thymidine uptake (proliferation) as follows: [formula] […]

[2] = Physical characteristics: solubility; type: physicochemical; details: solvent methanol; qualitative
Text: White amorphous powder • 2. […] Molecular weight of 805, as determined by mass spectrometry consistent with a molecular ion at (m/z) 1093.6556 for the tetra-(trimethylsilyl) derivative and characteristic fragment ions at (m/z) 673 and 481.
White amorphous powder • 2. […] Molecular weight of 805, as determined by mass spectrometry consistent with a molecular ion at (m/z) 1021.6169 for the tri-(trimethylsilyl) derivative and characteristic fragment ions at (m/z) 675 and 483.

Solubility [2]: Solubility in methanol
SMILES: CCC[C@@H]1/C=C(\C)C[C@H](C)C[C@H](OC)[C@H]2O[C@@](O)(C(=O)C(=O)N3CCCC[C@H]3C(=O)O[C@H](/C(C)=C/[C@@H]3CC[C@@H](O)[C@H](OC)C3)[C@H](C)[C@@H](O)CC1=O)[C@H](C)C[C@@H]2OC [Tsukubamycin B]
inhibition of T-cell proliferation after addition of IL-2 ([1]; 50 units/ml of IL-2 (recombinant human IL-2) added at the initiation of culture): reversed | inhibition of T-cell activation / % inhibition of tritiated thymidine uptake (proliferation) ([1]; purified mouse spleen T lymphocytes, ionomycin 250 ng/ml plus PMA 10 ng/ml, 44 hours culture plus 4 hours pulse, various concentrations, no numbers given): indicated its immunosuppressant properties; also recorded: positive inhibition of T-cell activation
